Our source for the IC50 values is patent US20250109156A1, “INDOLE-CONTAINING MACROCYCLIC COMPOUNDS AND USES THEREOF” (JIANGSU AOSAIKANG PHARMACEUTICAL CO., LTD., priority 2022, published 2025).

One test addresses CDK2/CyclinE1 (Homo sapiens (Human), UniProt P24941). Briefly: In vitro CDK2/CyclinE1 enzyme activity assay (TR-FRET). The format is biochemical. Conditions: Ulight-4E-BP1 peptide, 25° C. 120 minutes. As to the method:
Experimental Example 2: In Vitro CDK2/[…] Enzyme Activity Assay
CDK2/CyclinE1 was purchased from SignalChem. Ulight-4E-BP1 peptide, Eu-anti-phospho-tyrosine antibody, and 1× detection buffer were purchased from PerkinElmer. High-purity ATP was purchased from Promega. EDTA was purchased from Sigma. Nivo multimode microplate reader (PerkinElmer).
(§1) Preparation of kinase buffer: the kinase buffer containing 50 mM HEPES, 1 mM EDTA, 10 mM MgCl2, 0.01% Brij-35, pH 7.4.
(§2) 2.38 g of HEPES, 58 mg of EDTA, 406 mg of MgCl2, and 20 mg of Brij-35 were added to 200 mL of buffer, and the pH was adjusted to 7.4.
(§3) 100 μL of 1 M EDTA stock solution was mixed with 0.625 μL of 1× detection buffer and 1725 μL of distilled water to prepare the stop solution.
Enzyme, Ulight-4E-BP1 peptide, ATP, and inhibitors were diluted with the kinase buffer.
The Eu-anti-phospho-tyrosine antibody was diluted to a concentration of 8 nM/L using detection buffer.
(§4) The compounds to be tested were 5-fold diluted with a multi-channel pipette to the 8th concentration, i.e., from 40 μM to 0.512 nM, with a final DMSO concentration of 4%. The experiment was set up in duplicate wells. 2.5 μL of each concentration gradient of the inhibitor was added to the microplate, followed by 5 μL of CDK2/CyclinE1 enzyme (10 ng), and 2.5 μL of a mixture of substrate and ATP (4 mM ATP, 100 nM Ulight-4E-BP1 peptide). At this point, the final concentration gradient of the compound was 10 μM diluted to 0.128 nM. The reaction system was reacted at 25° C. for 120 minutes. After the reaction, 5 μL of stop solution was added to each well, and the reaction was continued at 25° C. for 5 minutes. After stopping the reaction, 5 μL of Eu-anti-phospho-tyrosine antibody dilution was added to each well, and the mixture was reacted at 25° C. for 60 minutes. Data were then collected using the PerkinElmer Nivo multimode microplate reader in TR-FRET mode (excitation wavelength: 320 nm, emission wavelength: 665 nm).
Using the equation (Sample−Min)/(Max−Min)*100% to convert the raw data into inhibition rate, the IC50 value may be obtained by curve fitting with four parameters (obtained by “log (inhibitor) vs. response—Variable slope” mode in GraphPad Prism). Table 1 provides the CDK2/CyclinE1 enzymatic inhibitory activity of the compounds of the present disclosure.

The next test addresses CDK7/CyclinH/MAT1 (Homo sapiens (Human), UniProt P50613). Briefly: In vitro CDK7/CyclinH/MAT1 enzyme activity assay (TR-FRET). The format is biochemical. Conditions: Ulight-MBP peptide, 25° C. 60 minutes. The protocol:
Experimental Example 1: In Vitro CDK7/[…] Enzyme Activity Assay
CDK7/CyclinH/MAT1 was purchased from CARNA. Ulight-MBP peptide, Eu-MBP antibody, and 1× detection buffer were purchased from PerkinElmer. High-purity ATP was purchased from Promega. EDTA was purchased from Sigma. Nivo multimode microplate reader (PerkinElmer).
as §1, §2, §3
Enzyme, Ulight-MBP peptide, ATP, and inhibitors were diluted with the kinase buffer.
The Eu-MBP antibody was diluted to a concentration of 8 nM/L using detection buffer.
as §4, with “CDK7/CyclinH/MAT1” for “CDK2/CyclinE1”, “(5” for “(10”, “50” for “100”, “Ulight-MBP” for “Ulight-4E-BP1”, “60” for “120”, “Eu-MBP” for “Eu-anti-phospho-tyrosine”
Using the equation (Sample−Min)/(Max−Min)*100% to convert the raw data into inhibition rate, the IC50 value may be obtained by curve fitting with four parameters (obtained by “log (inhibitor) vs. response—Variable slope” mode in GraphPad Prism). Table 1 provides the CDK7/CyclinH/MAT1 enzymatic inhibitory activity of the compounds of the present disclosure.
In general terms: In TR-FRET formats the signal depends on donor and acceptor labels being close together.

The subject of the next test is OVCAR3 cells. Briefly: In vitro OVCAR3 cell activity assay (CellTiter-Glo proliferation). The format is cell-based. Particulars: Homo sapiens, OVCAR-3, 72 h, 3 days incubation. The protocol:
Experimental Example 5: In Vitro OVCAR3 Cell Activity Assay
1640 culture medium, fetal bovine serum, penicillin/streptomycin antibiotics were purchased from WISENT. CellTiter-Glo (cell viability chemiluminescence detection reagent) reagent was purchased from Promega. OVCAR3 cell line was purchased from Nanjing Cobioer Biosciences Co. Ltd. Nivo multimode microplate reader (PerkinElmer).
The OVCAR3 cells were seeded in a white 96-well plate, with 80 μL of cell suspension per well, containing 2000 OVCAR3 cells each. The cell plate was incubated overnight in a CO2 incubator.
The compounds to be tested were 5-fold diluted with a multi-channel pipette to the 8th concentration, i.e., diluted from 200 μM to 0.512 nM, and the experiment was set up in duplicate wells. 78 μL of culture medium was added to an intermediate plate, and then 2 μL of gradient diluted compound per well was transferred to the intermediate plate according to the corresponding position. After mixing well, the compound was transferred to the cell plate at 20 μL per well. The concentration of the compound transferred to the cell plate ranged from 1 μM to 0.0026 nM. The cell plate was incubated in a CO2 incubator for 3 days. Another cell plate was prepared to measure the signal on the day of drug addition as the maximum value (denoted as Max in the equation below) for data analysis. 25 μL of cell viability chemiluminescence detection reagent was added to each well of this cell plate, and incubated at room temperature for 10 minutes to stabilize the luminescent signal. A multimode microplate reader was used for reading. […]
Using the equation (Sample−Min)/(Max−Min)*100% to convert the raw data into inhibition rate, the IC50 value may be obtained by curve fitting with four parameters (obtained by “log (inhibitor) vs. response—Variable slope” mode in GraphPad Prism). Table 1 provides the inhibitory activity of the compounds of the present disclosure on the proliferation of OVCAR3 cells.

Sequence of CDK7/CyclinH/MAT1 (P50613 whole entry): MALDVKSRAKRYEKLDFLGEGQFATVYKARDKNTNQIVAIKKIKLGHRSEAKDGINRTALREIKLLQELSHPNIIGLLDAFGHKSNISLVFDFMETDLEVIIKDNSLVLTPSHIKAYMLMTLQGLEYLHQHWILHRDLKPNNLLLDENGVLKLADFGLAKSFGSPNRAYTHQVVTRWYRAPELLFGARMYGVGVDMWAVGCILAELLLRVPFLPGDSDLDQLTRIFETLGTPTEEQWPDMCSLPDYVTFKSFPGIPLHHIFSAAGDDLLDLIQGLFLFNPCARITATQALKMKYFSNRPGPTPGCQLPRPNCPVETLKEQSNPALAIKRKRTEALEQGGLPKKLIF
Sequence of CDK7/CyclinH/MAT1 (P51946 whole entry partner): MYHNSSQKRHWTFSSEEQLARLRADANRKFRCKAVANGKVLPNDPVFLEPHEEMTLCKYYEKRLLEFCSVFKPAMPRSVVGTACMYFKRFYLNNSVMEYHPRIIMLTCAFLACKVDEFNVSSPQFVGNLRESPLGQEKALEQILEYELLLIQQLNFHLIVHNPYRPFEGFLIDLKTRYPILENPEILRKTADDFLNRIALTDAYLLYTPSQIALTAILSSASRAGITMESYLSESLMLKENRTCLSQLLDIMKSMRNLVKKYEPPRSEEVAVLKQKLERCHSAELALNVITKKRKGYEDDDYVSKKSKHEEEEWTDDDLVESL
Sequence of CDK7/CyclinH/MAT1 (P51948 whole entry partner): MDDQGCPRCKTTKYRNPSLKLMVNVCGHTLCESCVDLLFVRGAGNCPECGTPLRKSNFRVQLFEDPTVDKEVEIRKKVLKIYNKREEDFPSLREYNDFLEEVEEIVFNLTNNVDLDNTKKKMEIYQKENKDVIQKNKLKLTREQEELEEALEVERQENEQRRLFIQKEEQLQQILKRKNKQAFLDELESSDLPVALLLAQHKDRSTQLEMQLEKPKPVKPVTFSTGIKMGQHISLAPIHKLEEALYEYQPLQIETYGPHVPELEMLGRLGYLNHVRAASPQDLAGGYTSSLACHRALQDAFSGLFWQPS

As for `CP(C)(=O)c1c2ccc3c(c[nH]c13)-c1nc(ncc1C(F)(F)F)N[C@H]1CCCN(CCCCNC2=O)C1` [Compound 5], the IC50 on CDK2/CyclinE1 is 738 nM; against CDK7/CyclinH/MAT1 it was 1.2 nM; with OVCAR3 cells it was 0.2 nM.

With `CP(C)(=O)c1c2ccc3c(c[nH]c13)-c1nc(ncc1C(F)(F)F)N[C@H]1CCCCN(CCCCNC2=O)C1` [Compound 6], the IC50 on CDK2/CyclinE1 was above 1000 nM; at CDK7/CyclinH/MAT1, 1.4 nM; in the test with OVCAR3 cells it was 0.6 nM.

For `CN1CCCCN2CCCC[C@@H](C2)Nc2ncc(C(F)(F)F)c(n2)-c2c[nH]c3c(P(C)(C)=O)c(ccc23)C1=O` [Compound 3], the IC50 at CDK2/CyclinE1 is above 1000 nM; on CDK7/CyclinH/MAT1, 1.1 nM; with OVCAR3 cells, 0.6 nM.

With `CN1CCCCN2CCC[C@@H](C2)Nc2ncc(C(F)(F)F)c(n2)-c2c[nH]c3c(P(C)(C)=O)c(ccc23)C1=O` [Formate of compound 1], the IC50 was 253 nM on CDK2/CyclinE1, 1 nM at CDK7/CyclinH/MAT1 and 0.3 nM in the test with OVCAR3 cells.

On to `CP(C)(=O)c1c2ccc3c(c[nH]c13)-c1nc(ncc1C(F)(F)F)N[C@H]1CCCN(CCCCCCO2)C1` [Compound 4], for which the IC50 against CDK2/CyclinE1 was above 1000 nM; at CDK7/CyclinH/MAT1, 1.6 nM; in the test on OVCAR3 cells it was 0.2 nM.

One may read the IC50 as the point on the concentration scale where inhibition reaches its midpoint. Read a low IC50 as higher potency.
